Data from US6951856B2, “Arylethene-sulfonamides” (Actelion Pharmaceuticals Ltd., priority 2000, dated 2005).
Where two headings read alike, the source gives them in different places.

Assays:
[1] = molecular target: T1, human recombinant ETA receptors (Homo sapiens, UniProt P25101); experiment: Inhibition of [125I]ET-1 binding to membranes from CHO cells carrying human ETA receptors; settings: CHO cell membranes, 8 pM [125I]ET-1, 2 h at 20° C.
T1 construct: expressed in transfected cells; host or cells: CHO cells (microsomal membranes)
T1 sequence (P25101 21-427): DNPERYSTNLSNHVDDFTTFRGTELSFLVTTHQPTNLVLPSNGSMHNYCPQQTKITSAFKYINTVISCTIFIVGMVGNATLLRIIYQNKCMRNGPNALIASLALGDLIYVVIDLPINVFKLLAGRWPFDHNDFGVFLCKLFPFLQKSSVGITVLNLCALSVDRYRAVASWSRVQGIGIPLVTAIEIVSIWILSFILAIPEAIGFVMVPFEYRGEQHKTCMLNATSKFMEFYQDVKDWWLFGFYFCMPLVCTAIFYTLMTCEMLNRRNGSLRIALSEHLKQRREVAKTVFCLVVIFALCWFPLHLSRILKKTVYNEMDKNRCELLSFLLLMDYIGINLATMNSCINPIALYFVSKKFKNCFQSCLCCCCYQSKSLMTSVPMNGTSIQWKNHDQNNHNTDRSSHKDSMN
Experimental: (§1) 1) Inhibition of Endothelin Binding to Membranes from CHO Cells Carrying Human ET Receptors
(§2) For competition binding studies, membranes of CHO cells expressing human recombinant ETA or ETB receptors were used. Microsomal membranes from recombinant CHO cells were prepared and the binding assay made as previously described (Breu V., et al, FEBS Lett 1993; 334:210).
(§3) The assay was performed in 200 uL 50 mM Tris/HCl buffer, pH 7.4, including 25 mM MnCl2, 1 mM EDTA and 0.5% (w/v) BSA in polypropylene microtiter plates. […] After 2 h, the membranes were filtered on filterplates containing GF/C filters (Unifilterplates from Canberra Packard S.A. Zürich, Switzerland). To each well, 50 uL of scintillation cocktail was added (MicroScint 20, Canberra Packard S.A. Zürich, Switzerland) and the filter plates counted in a microplate counter (TopCount, Canberra Packard S.A. Zürich, Switzerland).
(§4) All the test compounds were dissolved, diluted and added in DMSO.

[2] = molecular target: T2, human recombinant ETB receptors (Homo sapiens, UniProt P24530); experiment: Inhibition of [125I]ET-1 binding to membranes from CHO cells carrying human ETB receptors
T2 construct: expressed in transfected cells; host or cells: CHO cells (microsomal membranes)
T2 sequence (P24530 27-442): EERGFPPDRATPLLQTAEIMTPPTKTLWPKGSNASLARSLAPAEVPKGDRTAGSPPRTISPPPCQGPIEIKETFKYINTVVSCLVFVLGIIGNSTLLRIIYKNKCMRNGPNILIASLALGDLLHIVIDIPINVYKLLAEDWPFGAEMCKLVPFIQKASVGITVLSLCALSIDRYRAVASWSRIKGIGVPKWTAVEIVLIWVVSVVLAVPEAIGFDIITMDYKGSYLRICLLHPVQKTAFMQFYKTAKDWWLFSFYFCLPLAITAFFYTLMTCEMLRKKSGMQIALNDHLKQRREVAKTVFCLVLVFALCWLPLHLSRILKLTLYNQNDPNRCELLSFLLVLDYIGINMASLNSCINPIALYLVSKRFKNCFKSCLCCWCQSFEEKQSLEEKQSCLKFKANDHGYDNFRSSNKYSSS
Experimental: as §1, §2, §3, §4

Row | IC50 [1] | IC50 [2] | IC50 ([2]; CHO cell membranes, 8 pM [125I]ET-1, 2 h at 20° C.) | Compound
1 | 21 nM | 1360 nM |  | COc1cnc(OCCOc2ncnc(NS(=O)(=O)/C=C/c3cccc(C)c3)c2-c2ccc(Cl)cc2)nc1 [Example 53]
2 | 19.3 nM | 332 nM |  | O=S(=O)(/C=C/c1ccccc1)Nc1ncnc(OCCOc2ccc(C(F)(F)F)cn2)c1-c1ccc(Cl)cc1 [Example 45]
3 | 17.6 nM | > 10000 nM |  | Cc1ccc(-c2c(NS(=O)(=O)/C=C/c3cccs3)nc(-c3ncccn3)nc2OCCOc2ncc(C)cn2)cc1 [Example 75]
4 | 18.5 nM | 264 nM |  | Cc1ccc(-c2c(NS(=O)(=O)/C=C/c3ccccc3)ncnc2OCCOc2ccc(Br)cn2)cc1 [Example 11]
5 | 41.8 nM | 9070 nM |  | C/C(=C\c1ccccc1)S(=O)(=O)Nc1ncnc(OCCOc2ncc(Br)cn2)c1-c1ccc(C)cc1 [Example 30]
6 | 3.3 nM | 138 nM |  | COc1ccccc1Oc1c(NS(=O)(=O)/C=C/c2ccccc2)nc(N2CCOCC2)nc1OCCOc1ncc(SC)cn1 [Example 204]
7 | 5.2 nM | 830 nM |  | COc1ccc(Cl)c(Oc2c(NS(=O)(=O)/C=C/c3ccccc3)ncnc2OCCOc2ncc(Br)cn2)c1 [Example 225]
8 | 8.5 nM | 4640 nM |  | CS(=O)(=O)c1nc(NS(=O)(=O)/C=C/c2ccccc2)c(-c2ccccc2)c(OCCOc2ncc(Br)cn2)n1 [Example 107]
9 | 9.1 nM |  | 2380 nM | Cc1ccc(-c2c(NS(=O)(=O)/C=C/c3cccs3)nc(-c3ncccn3)nc2OCCOc2ncc(Br)cn2)cc1 [Example 145]
10 | 6 nM | 1650 nM |  | Cc1ccc(-c2c(NS(=O)(=O)/C=C/c3cccs3)ncnc2OCCOc2ncc(Cl)cn2)cc1 [Example 69]
11 | 12.1 nM | 1260 nM |  | COc1ccccc1Oc1c(NS(=O)(=O)/C=C/c2cccs2)nc(-c2ncccn2)nc1OCCOc1ncccn1 [Example 158]
12 | 5.5 nM | 363 nM |  | COc1cnc(OCCOc2nc(-c3ccncc3)nc(NS(=O)(=O)/C(C)=C/c3ccccc3)c2Oc2ccccc2OC)nc1 [Example 177]
13 | 5.7 nM | 1660 nM |  | Cc1ccc(-c2c(NS(=O)(=O)/C=C/c3ccccc3)nc(C3CC3)nc2OCCOc2ncc(Br)cn2)cc1 [Example 132]
14 | 5 nM | 671 nM |  | COc1ccccc1Oc1c(NS(=O)(=O)/C=C/c2ccsc2)nc(-c2ccncc2)nc1OCCOc1ncc(Br)cn1 [Example 178]
15 | 10 nM | 1560 nM |  | COc1ccccc1Oc1c(NS(=O)(=O)/C=C/c2ccccc2)nc(-c2ccncc2)nc1OCCOc1ncc(Cl)cn1 [Example 164]
16 | 39 nM | 3940 nM |  | COc1ccccc1Oc1c(NS(=O)(=O)/C=C/c2cccs2)ncnc1OCCOc1ncc(Br)cn1 [Example 214]
17 | 7.6 nM | 4760 nM |  | Cc1ccc(-c2c(NS(=O)(=O)/C=C/c3cccs3)nc(-c3ncccn3)nc2OCCOc2ncc(Cl)cn2)cc1 [Example 73]
18 | 24.9 nM | > 10000 nM |  | O=S(=O)(/C=C/c1ccccc1)Nc1nc(N2CCCCC2)nc(OCCOc2ncc(Br)cn2)c1-c1ccccc1 [Example 116]
19 | 15.4 nM | 1550 nM |  | COc1cnc(OCCOc2ncnc(NS(=O)(=O)/C=C/c3ccccc3)c2Oc2cc(OC)ccc2Cl)nc1 [Example 226]
20 | 8.2 nM | 1770 nM |  | COc1cnc(OCCOc2nc(C3CC3)nc(NS(=O)(=O)/C=C/c3ccccc3)c2-c2ccc(C)cc2)nc1 [Example 133]
21 | 41 nM | 506 nM |  | COc1ccccc1Oc1c(NS(=O)(=O)/C=C/c2ccccc2)ncnc1OCCOc1ncc(SC)cn1 [Example 222]
22 | 10 nM | 290 nM |  | COc1cccc(Oc2c(NS(=O)(=O)/C=C/c3ccccc3)ncnc2OCCOc2ncc(SC)cn2)c1 [Example 232]
23 | 14 nM | 183 nM |  | O=S(=O)(/C=C/c1ccc(Cl)cc1)Nc1ncnc(OCCOc2ncc(Br)cn2)c1-c1ccc(Cl)cc1 [Example 54]
24 | 4.3 nM | 336 nM |  | COc1cnc(OCCOc2ncnc(NS(=O)(=O)/C=C/c3cccs3)c2-c2ccc(Br)cc2)nc1 [Example 90]

Row | IC50 [1] | IC50 [2] | IC50 ([2]; CHO cell membranes, 8 pM [125I]ET-1, 2 h at 20° C.) | Compound
25 | 31 nM | 6890 nM |  | O=S(=O)(/C=C/c1ccccc1)Nc1ncnc(OCCOc2ncc(F)cn2)c1-c1ccc(Cl)cc1 [Example 50]
26 | 7.8 nM | 3530 nM |  | COc1cnc(OCCOc2nc(-c3ncccn3)nc(NS(=O)(=O)/C=C/c3cccs3)c2-c2ccc(C)cc2)nc1 [Example 74]
27 | 8.2 nM | 270 nM |  | Cc1ccc(/C=C/S(=O)(=O)Nc2ncnc(OCCOc3ncc(Br)cn3)c2-c2ccc(C)cc2)cc1 [Example 23]
28 | 27.5 nM | 7590 nM |  | COc1cnc(OCCOc2nc(-c3ccncc3)nc(NS(=O)(=O)/C=C/c3ccccc3)c2-c2ccc(C)cc2)nc1 [Example 83]
29 | 7.1 nM | 1980 nM |  | COc1ccccc1Oc1c(NS(=O)(=O)/C=C/c2ccsc2)nc(-c2ccncc2)nc1OCCOc1ncc(Cl)cn1 [Example 181]
30 | 33.2 nM | 309 nM |  | COc1ccc(-c2c(NS(=O)(=O)/C=C/c3ccccc3)ncnc2OCCOc2ccc(Br)cn2)cc1 [Example 124]
31 | 9 nM | 3640 nM |  | COc1cnc(OCCOc2nc(-c3cnccn3)nc(NS(=O)(=O)/C=C/c3ccccc3)c2-c2ccc(C)cc2)nc1 [Example 126]
32 | 6.7 nM | 2700 nM |  | Cc1ccc(-c2c(NS(=O)(=O)/C=C/c3ccccc3)nc(-c3cnccn3)nc2OCCOc2ncc(Br)cn2)cc1 [Example 125]
33 | 9.8 nM | 1010 nM |  | COc1ccc(-c2c(NS(=O)(=O)/C=C/c3ccccc3)ncnc2OCCOc2ncc(Br)cn2)cc1 [Example 118]
34 | 4.7 nM | 499 nM |  | COc1ccccc1Oc1c(NS(=O)(=O)/C(C)=C/c2ccccc2)nc(-c2ccncc2)nc1OCCOc1ncc(Br)cn1 [Example 175]
35 | 6.3 nM | 4890 nM |  | Cc1ccc(-c2c(NS(=O)(=O)/C=C/c3ccccc3)nc(C3CC3)nc2OCCOc2ncc(Cl)cn2)cc1 [Example 134]
36 | 39 nM | > 10000 nM |  | O=S(=O)(/C=C/c1ccccc1)Nc1nc(-c2ccncc2)nc(OCCOc2ncc(Br)cn2)c1-c1ccccc1 [Example 109]
37 | 7.04 nM | 752 nM |  | O=S(=O)(/C=C/c1ccccc1)Nc1ncnc(OCCOc2ncc(Cl)cn2)c1-c1ccc(Cl)cc1 [Example 47]
38 | 14.5 nM | 3910 nM |  | COc1ccc(Cl)c(Oc2c(NS(=O)(=O)/C=C/c3ccccc3)nc(-c3ccncc3)nc2OCCOc2ncc(Br)cn2)c1 [Example 228]
39 | 4.6 nM | 1220 nM |  | O=S(=O)(/C=C/c1cccs1)Nc1ncnc(OCCOc2ncc(Cl)cn2)c1-c1ccc(Br)cc1 [Example 89]
40 | 4.1 nM | 1080 nM |  | COc1ccccc1Oc1c(NS(=O)(=O)/C(C)=C/c2ccccc2)nc(-c2ccncc2)nc1OCCOc1ncc(Cl)cn1 [Example 176]
41 | 273 nM | 8600 nM |  | Cc1ccc(-c2c(NS(=O)(=O)/C=C/c3ccccc3)ncnc2OCCOc2cnccn2)cc1 [Example 4]
42 | 5.4 nM | 1780 nM |  | Cc1ccc(-c2c(NS(=O)(=O)/C=C/c3cccc(C)c3)ncnc2OCCOc2ncc(Br)cn2)cc1 [Example 41]
43 | 21.7 nM | 657 nM |  | Cc1ccc(/C=C/S(=O)(=O)Nc2ncnc(OCCOc3ncc(Cl)cn3)c2-c2ccc(C)cc2)cc1 [Example 24]
44 | 30.7 nM | 8680 nM |  | CSc1nc(NS(=O)(=O)/C=C/c2ccccc2)c(-c2ccccc2)c(OCCOc2ncc(Br)cn2)n1 [Example 101]
45 | 4.6 nM | 193 nM |  | COc1cnc(OCCOc2ncnc(NS(=O)(=O)/C=C/c3ccccc3)c2-c2ccc(Br)cc2)nc1 [Example 86]
46 | 7.4 nM | 1030 nM |  | COc1ccccc1Oc1c(NS(=O)(=O)/C=C/c2ccsc2)nc(-c2ccncc2)nc1OCCOc1ncccn1 [Example 180]
47 | 62.2 nM | 1130 nM |  | Cc1ccc(-c2c(NS(=O)(=O)/C=C/c3ccccc3)ncnc2OCCOc2nc3ccccc3o2)cc1 [Example 16]
48 | 5 nM | 220 nM |  | COc1cnc(OCCOc2nc(N3CCOCC3)nc(NS(=O)(=O)/C=C/c3ccccc3)c2Oc2ccccc2OC)nc1 [Example 197]
